“Also recorded” adds a separate entry of the source.
Columns and labels:
Assay type in all cases: physicochemical
[1] = Equilibration (slurry) of solid forms in batch solvents, solid analyzed by XRPD
Experimental: Equilibration studies using single, binary and ternary combinations of batch solvents (water, acetone, and acetonitrile) were investigated to mimic key steps in manufacturing 3-(4-nitro-1-oxoisoindolin-2-yl)piperidine-2,6-dione. Materials of 3-(4-nitro-1-oxoisoindolin-2-yl)piperidine-2,6-dione and solvent or solvent mixtures were added to a glass vial to achieve free-flowing slurry and allowed to equilibrate at the specified temperature. […] The solid phase was then dried under air and analyzed by XRPD.
A total of four batches of 3-(4-nitro-1-oxoisoindolin-2-yl)piperidine-2,6-dione were characterized by XRPD, DSC, TGA, ATR-FTIR and DVS, as described in section 6.5. The solid form represented by the batch 1 was designated as Form A; the solid form represented by the batch 4 was designated as Form B; the batches 2 and 3 were determined to be mixtures of Forms A and B, with Form B dominating the patterns. The equilibration experiments were performed using batches 2, 3 and 4, and the results are described in Table 2.
(§1) All of the solid samples generated in the polymorph screen were analyzed by XRPD. XRPD analysis was conducted on a PANalytical Empyrean or a Thermo ARL X'TRA X-ray powder diffractometer using Cu Kα radiation at 1.54 Å.

[2] = Dynamic Vapor Sorption (DVS) hygroscopicity; conditions: for total mass change between 0% and 90% relative humidity: DVS at 25° C., 0% to 90% RH; for hygroscopicity: DVS, 0% to 90% relative humidity; for XRPD pattern after adsorption/desorption cycles: after DVS
Experimental: Hygroscopicity was determined on a Surface Measurement Systems DVS. Typically a sample size of 5-30 mg was loaded into the DVS instrument sample pan and the sample was analyzed on a DVS automated sorption analyzer at 25° C. The relative humidity was increased from 0% to 90% RH at 10% RH step. The relative humidity was then decreased in a similar manner to accomplish a full adsorption/desorption cycle.

[3] = Additional form conversion experiments (heating, slurry), XRPD
Experimental: as §1

SMILES | conversion to other forms ([1]; form conversion studies) | relative thermodynamic stability of the form ([1]; form conversion studies) | total mass change between 0% and 90% relative humidity [2] [%] | hygroscopicity [2] | XRPD pattern after adsorption/desorption cycles [2] | form conversion ([3]; ambient temperature, NMP/acetone/water (1:2.5:2.5), time not stated) | XRPD Result ([3]; heated to 220° C. for 4 hours) | XRPD Result ([3]; slurry in NMP/Acetone/water at ambient for 5 days) | XRPD Result ([3]; slurry in NMP/Acetone/water at ambient for 10 days) | Form by XRPD ([1]; equilibration in acetone, ambient, 8 days) | Form by XRPD ([1]; equilibration in acetone/water (1:1), ambient, 8 days) | Form by XRPD ([1]; equilibration in acetonitrile, 80° C. (or reflux), 6 hours) | Form by XRPD ([1]; equilibration in acetonitrile/water (1:1), ambient, 8 days) | Form by XRPD ([1]; equilibration in acetonitrile/water (2:1), 60° C., 6 hours) | Form by XRPD ([1]; equilibration in acetonitrile/water/acetone (1:1:1), ambient, 8 days) | Form by XRPD ([1]; equilibration in water, ambient, 8 days)
O=C1CCC(N2Cc3c(cccc3[N+](=O)[O-])C2=O)C(=O)N1 (single isomer, unassigned) [Form A, 3-(4-nitro-1-oxoisoindolin-2-yl)piperidine-2,6-dione] | no conversion | most thermodynamically stable form | 0.42 | not hygroscopic | no change | – | – | – | – | – | – | – | – | – | – | –
O=C1CCC(N2Cc3c(cccc3[N+](=O)[O-])C2=O)C(=O)N1 (single isomer, unassigned) [Form C, 3-(4-nitro-1-oxoisoindolin-2-yl)piperidine-2,6-dione] | – | – | 0.43 | not hygroscopic | no change | converts to Form A | partially converts to Form A; also recorded: Form A + C | Form A + C | Form A + C | – | – | – | – | – | – | –
O=C1CCC(N2Cc3c(cccc3[N+](=O)[O-])C2=O)C(=O)N1 (single isomer, unassigned) [Form B, 3-(4-nitro-1-oxoisoindolin-2-yl)piperidine-2,6-dione] | – | – | 0.39 | not hygroscopic | no change | – | converts to Form A | – | – | converts to Form A | converts to Form A | converts to Form A | converts to Form A | converts to Form A | converts to Form A | converts to Form A

Source: patent publication US9085551B2, “Solid forms of 3-(4-nitro-1-oxisoindolin-2-yl)piperidine-2,6-dione” (Celgene Corporation, priority 2012, dated 2015)
